Starred links: 1 amine or outer side, 2 acyl side, 3 side chain; linkers in the order of their positions; H or OH if unused. Positions of bridges follow the written chain, without caps; N, C: chain ends. Residues, ends and D or L forms follow the SMILES beside them. X1 = O=C(C[*:2])NCCNC(=O)c1ccc(C2=N[C@H](C(=O)[*:1])CS2)cc1
Assays:
BCL-XL = target: T1, BCL-XL (Homo sapiens, UniProt Q07817, DEL27-81); test: SPR binding assay, BCL-XL; conditions: affinity fitting, mean ± SD of three independent experiments, 25 °C
T1 construct: human BCL-XL (residues 1–210, with 27–81 and 210–233 removed); vector-borne tag of pET-22b (Ni-NTA purification implies a His tag); made in house; host or cells: E. coli BL21 (DE3)
Description: (§1) The DNA fragments encoding human BCL-XL ([…], with […] removed), BCL-w (residues 6–152), MCL-1 (residues 152–308) and BFL-1 (residues 1–151) as previously reported[18] were cloned into a pET-22b vector (Invitrogen), respectively. A chimeric human BCL-2 (including residues 1–50 and 92–207) was constructed, by removing the internal long loop (residues 51–91) and replacing its residues 35–50 with residues 33–48 of BCL-XL to solubilize the protein[14], and then it was cloned into a pET28a-Sumo vector (Invitrogen). All BCL-2 mutants (G101V, F104L, Y103D, D111A) were generated by mutagenic PCR, according to the QuikChange (Stratagene) protocol.
(§2) SPR assays were performed using a Biacore T200 instrument in running buffer consisting 10 mM PBS, 50 μM EDTA and 0.05% Tween-20 at 25 °C. Biotinylated proteins were immobilized on a CAP sensor chip (Cytiva, 28920234). […] The binding affinities were quantified by the Biacore evaluation software using 1:1 binding model. The reproducibility of the assays was confirmed by performing replicate determinations.

BCL-2-D111A = target: T2, BCL-2-D111A (Homo sapiens, UniProt P10415, D111A/DEL35-91/INS34DVEENRTEAPEGTESE); test: SPR binding assay, BCL-2 D111A mutant
T2 construct: A chimeric human BCL-2 (including residues 1–50 and 92–207) was constructed; SUMO (pET28a-Sumo vector); made in house; host or cells: E. coli BL21 (DE3)

BCL-2-G101V = target: T3, BCL-2-G101V (Homo sapiens, UniProt P10415, DEL35-91/G101V/INS34DVEENRTEAPEGTESE); test: SPR binding assay, BCL-2 G101V mutant; conditions: affinity fitting, mean ± SD of three independent experiments
T3 construct: A chimeric human BCL-2 (including residues 1–50 and 92–207) was constructed; SUMO (pET28a-Sumo vector); made in house; host or cells: E. coli BL21 (DE3)
Description: as §1, §2

BCL-2-D103Y = target: T4, BCL-2-D103Y (Homo sapiens, UniProt P10415, D103Y/DEL35-91/INS34DVEENRTEAPEGTESE); test: SPR binding assay, BCL-2 D103Y mutant; conditions: affinity fitting, mean ± SD of three independent experiments
T4 construct: A chimeric human BCL-2 (including residues 1–50 and 92–207) was constructed; SUMO (pET28a-Sumo vector); made in house; host or cells: E. coli BL21 (DE3)
Description: as §1, §2

BCL-2-F104L = target: T5, BCL-2-F104L (Homo sapiens, UniProt P10415, DEL35-91/F104L/INS34DVEENRTEAPEGTESE); test: SPR binding assay, BCL-2 F104L mutant; conditions: affinity fitting, mean ± SD of three independent experiments
T5 construct: A chimeric human BCL-2 (including residues 1–50 and 92–207) was constructed; SUMO (pET28a-Sumo vector); made in house; host or cells: E. coli BL21 (DE3)
Description: as §1, §2

BCL-w = target: T6, BCL-w (Homo sapiens, UniProt Q92843); test: SPR binding assay, BCL-w; conditions: affinity fitting, mean ± SD of three independent experiments
T6 construct: BCL-w (residues 6–152); vector-borne tag of pET-22b (Ni-NTA purification implies a His tag); made in house; host or cells: E. coli BL21 (DE3)
T6 sequence (Q92843 6-152): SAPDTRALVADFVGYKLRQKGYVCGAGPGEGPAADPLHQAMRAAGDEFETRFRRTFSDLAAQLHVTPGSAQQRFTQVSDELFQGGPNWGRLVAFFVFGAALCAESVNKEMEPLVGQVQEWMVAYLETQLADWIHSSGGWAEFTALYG
Description: as §1, §2

MCL-1 = MCL-1 (Homo sapiens, UniProt Q07820); test: SPR binding assay, MCL-1; conditions: NB = no binding
Chain of MCL-1 (Q07820 152-308): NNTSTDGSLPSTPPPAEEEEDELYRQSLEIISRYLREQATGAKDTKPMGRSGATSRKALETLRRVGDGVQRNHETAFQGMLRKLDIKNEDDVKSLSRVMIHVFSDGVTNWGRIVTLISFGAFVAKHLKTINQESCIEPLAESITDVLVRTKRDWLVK
Description: as §1, §2

BFL-1 = target: T7, BFL-1 (Homo sapiens, UniProt Q16548); test: SPR binding assay, BFL-1; conditions: NB = no binding
T7 construct: BFL-1 (residues 1–151); vector-borne tag of pET-22b (Ni-NTA purification implies a His tag); made in house; host or cells: E. coli BL21 (DE3)
T7 sequence (Q16548 1-151): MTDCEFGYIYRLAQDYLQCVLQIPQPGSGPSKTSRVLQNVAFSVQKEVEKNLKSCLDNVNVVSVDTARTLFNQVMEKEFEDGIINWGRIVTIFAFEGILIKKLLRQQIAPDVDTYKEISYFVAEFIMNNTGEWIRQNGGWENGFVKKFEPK
Description: as §1, §2

C[C@@H]1NC(=O)[C@@H]2CCCN2C(=O)[C@@H]2CSC(=N2)c2ccc(cc2)C(=O)NCCNC(=O)CSC[C@@H](C(N)=O)NC(=O)[C@H](CCC(=O)O)NC(=O)[C@H](Cc2ccc(O)cc2)NC(=O)[C@H](CC(=O)O)NC(=O)[C@H](Cc2c[nH]c3ccccc23)NC(=O)CNC(=O)[C@H](Cc2ccc(O)cc2)NC(=O)[C@H](CCCNC(=N)N)NC1=O [cp1] (PARYGWDYEC-NH2; linker N-10 via X1)
Kd (BCL-XL): > 12.1 µM
Kd (BCL-2-D111A): 5.34 ± 1 µM
Kd (BCL-2-G101V): 1 ± 0.13 µM
Kd (BCL-2-D103Y): 0.36 ± 0.03 µM
Kd (BCL-2-F104L): 1.62 ± 0.36 µM
Kd (BCL-w): 1.98 ± 0.39 µM
Kd (MCL-1): > 12.8 µM
Kd (BFL-1): > 12.8 µM

From publication PMC10874388, “Cyclic peptides discriminate BCL-2 and its clinical mutants from BCL-XL by engaging a single-residue discrepancy” (Nature Communications, 2024)
